Patent US20140031278A1, “Novel Glucagon Analogues” (NOVO NORDISK A/S, priority 2011, published 2014)
*1 amine or outer side, *2 acyl side, *3 side chain or, on linkers, in order; H or OH if unused. Where a SMILES comes first, the peptide text is derived from it. Side-chain parts run from the residue outwards. γGlu = O=C(O)[C@H](CCC(=O)[*:2])N[*:1]; εLys = N[C@@H](CCCCN[*:1])C(=O)[*:2]

Target: T1, glucagon receptor (Homo sapiens, UniProt P47871)
T1 construct: expressed in transfected cells
Experiment: Assay (I) Glucagon activity (cAMP biosensor, FLIPR)
Type: cell-based
Conditions: HEK-293 cells with cloned glucagon receptor and cAMP biosensor; end point after 6 minutes
Method in brief: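 HEK-293 cells expressing glucagon receptor with membrane cAMP biosensor (ACTOne), calcium-dye loaded with probenecid and a PDE inhibitor.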

T1 sequence (P47871 26-477): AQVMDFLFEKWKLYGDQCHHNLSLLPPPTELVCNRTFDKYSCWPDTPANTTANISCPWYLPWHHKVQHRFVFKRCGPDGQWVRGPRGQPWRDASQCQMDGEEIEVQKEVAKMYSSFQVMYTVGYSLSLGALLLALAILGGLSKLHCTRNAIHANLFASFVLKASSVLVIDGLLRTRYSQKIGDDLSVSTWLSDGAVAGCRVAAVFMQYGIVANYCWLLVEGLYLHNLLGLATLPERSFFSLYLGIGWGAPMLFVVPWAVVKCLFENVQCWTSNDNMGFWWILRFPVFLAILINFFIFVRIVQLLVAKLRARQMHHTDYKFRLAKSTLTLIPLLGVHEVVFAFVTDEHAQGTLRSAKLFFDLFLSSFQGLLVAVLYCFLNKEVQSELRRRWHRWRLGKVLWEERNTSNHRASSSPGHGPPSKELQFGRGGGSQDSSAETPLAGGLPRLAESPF

EC50 [nM] | Compound
0.0103 | CC(=O)N[C@@H](CCC(=O)N[C@@H](CCC(=O)N[C@@H](CCC(=O)N[C@@H](CCC(=O)NCCCC[C@H](NC(=O)[C@@H](NC(=O)[C@H](Cc1ccccc1)NC(=O)[C@H](CC(=O)O)NC(=O)[C@H](C)NC(=O)[C@H](C)NC(=O)[C@H](CCCNC(=N)N)NC(=O)[C@H](CCCNC(=N)N)NC(=O)[C@H](Cc1ccccc1)NC(=O)[C@H](CC(=O)O)NC(=O)[C@H](CC(C)C)NC(=O)[C@H](Cc1ccc(O)cc1)NC(=O)[C@H](CCCCN)NC(=O)[C@H](CO)NC(=O)[C@H](Cc1ccc(O)cc1)NC(=O)[C@H](CC(=O)O)NC(=O)[C@H](CO)NC(=O)[C@@H](NC(=O)[C@H](Cc1ccccc1)NC(=O)[C@@H](NC(=O)CNC(=O)[C@H](Cc1c[nH]cn1)NC(=O)[C@H](CO)NC(=O)[C@@H](N)Cc1c[nH]cn1)[C@@H](C)O)[C@@H](C)O)C(C)C)C(=O)N[C@@H](Cc1c[nH]c2ccccc12)C(=O)N[C@@H](CC(C)C)C(=O)N[C@@H](CC(C)C)C(=O)N[C@@H](CO)C(=O)N[C@H](C(=O)O)[C@@H](C)O)C(=O)O)C(=O)O)C(=O)O)C(=O)O [Example 12, N^ε24-[(4S)-4-[[(4S)-4-[[(4S)-4-[[(4S)-4-acetamido-4-carboxybutanoyl]amino]-4-carboxybutanoyl]amino]-4-carboxybutanoyl]amino]-4-carboxybutanoyl]-[His3,Phe16,Ala20,Lys24,Leu27,Ser28]-Glucagon] (H-HSHGTFTSDYSKYLDFRRAADFVK([γGlu-γGlu-γGlu-γGlu-Ac])WLLST-OH)
0.018 | CC(=O)N[C@@H](CCC(=O)N[C@@H](CCC(=O)N[C@@H](CCC(=O)N[C@@H](CCC(=O)NCCCC[C@H](NC(=O)[C@H](C)NC(=O)[C@H](CCCNC(=N)N)NC(=O)[C@H](CCCNC(=N)N)NC(=O)[C@H](CO)NC(=O)[C@H](CC(=O)O)NC(=O)[C@H](CC(C)C)NC(=O)[C@H](Cc1ccc(O)cc1)NC(=O)[C@H](CCCCN)NC(=O)[C@H](CO)NC(=O)[C@H](Cc1ccc(O)cc1)NC(=O)[C@H](CC(=O)O)NC(=O)[C@H](CO)NC(=O)[C@@H](NC(=O)[C@H](Cc1ccccc1)NC(=O)[C@@H](NC(=O)CNC(=O)[C@H](CCC(N)=O)NC(=O)[C@H](CO)NC(=O)[C@@H](N)Cc1c[nH]cn1)[C@@H](C)O)[C@@H](C)O)C(=O)N[C@@H](CC(=O)O)C(=O)N[C@@H](Cc1ccccc1)C(=O)N[C@H](C(=O)N[C@@H](CCC(N)=O)C(=O)N[C@@H](Cc1c[nH]c2ccccc12)C(=O)N[C@@H](CC(C)C)C(=O)N[C@@H](CC(C)C)C(=O)N[C@@H](CO)C(=O)N[C@H](C(=O)O)[C@@H](C)O)C(C)C)C(=O)O)C(=O)O)C(=O)O)C(=O)O [Example 54, N^ε20-[(4S)-4-[[(4S)-4-[[(4S)-4-[[(4S)-4-acetamido-4-carboxybutanoyl]amino]-4-carboxybutanoyl]amino]-4-carboxybutanoyl]amino]-4-carboxybutanoyl]-[Lys^20,Leu^27,Ser^28]-Glucagon]
0.0065 | CC(=O)N[C@@H](CCC(=O)N[C@@H](CCC(=O)N[C@@H](CCC(=O)N[C@@H](CCC(=O)NCCCC[C@H](NC(=O)[C@@H](NC(=O)[C@H](Cc1ccccc1)NC(=O)[C@H](CC(=O)O)NC(=O)[C@H](CCC(N)=O)NC(=O)[C@H](C)NC(=O)[C@H](CCCNC(=N)N)NC(=O)[C@H](CCCNC(=N)N)NC(=O)[C@@H](NC(=O)[C@H](CC(=O)O)NC(=O)[C@H](CC(C)C)NC(=O)[C@H](Cc1ccc(O)cc1)NC(=O)[C@H](CCCCN)NC(=O)[C@H](CO)NC(=O)[C@H](Cc1ccc(O)cc1)NC(=O)[C@H](CC(=O)O)NC(=O)[C@H](CO)NC(=O)[C@@H](NC(=O)[C@H](Cc1ccccc1)NC(=O)[C@@H](NC(=O)CNC(=O)[C@H](CCC(N)=O)NC(=O)[C@H](CO)NC(=O)[C@@H](N)Cc1c[nH]cn1)[C@@H](C)O)[C@@H](C)O)C(C)C)C(C)C)C(=O)N[C@@H](Cc1c[nH]c2ccccc12)C(=O)N[C@@H](CC(C)C)C(=O)N[C@@H](CC(C)C)C(=O)N[C@@H](CC(N)=O)C(=O)N[C@H](C(=O)O)[C@@H](C)O)C(=O)O)C(=O)O)C(=O)O)C(=O)O [Example 16, N^ε24-[(4S)-4-[[(4S)-4-[[(4S)-4-[[(4S)-4-acetamido-4-carboxybutanoyl]amino]-4-carboxybutanoyl]amino]-4-carboxybutanoyl]amino]-4-carboxybutanoyl]-[Val16,Lys24,Leu27]-Glucagon]
0.013 | CC(=O)N[C@@H](CCC(=O)N[C@@H](CCC(=O)N[C@@H](CCC(=O)N[C@@H](CCC(=O)NCCCC[C@H](N)C(=O)NCCCC[C@H](NC(=O)[C@H](CC(=O)O)NC(=O)[C@H](CC(C)C)NC(=O)[C@H](Cc1ccc(O)cc1)NC(=O)[C@H](CCCCN)NC(=O)[C@H](CO)NC(=O)[C@H](Cc1ccc(O)cc1)NC(=O)[C@H](CC(=O)O)NC(=O)[C@H](CO)NC(=O)[C@@H](NC(=O)[C@H](Cc1ccccc1)NC(=O)[C@@H](NC(=O)CNC(=O)[C@H](CCC(N)=O)NC(=O)[C@H](CO)NC(=O)[C@@H](N)Cc1c[nH]cn1)[C@@H](C)O)[C@@H](C)O)C(=O)N[C@@H](CCCNC(=N)N)C(=O)N[C@@H](C)C(=O)N[C@@H](C)C(=O)N[C@@H](CCC(N)=O)C(=O)N[C@@H](CC(=O)O)C(=O)N[C@@H](Cc1ccccc1)C(=O)N[C@H](C(=O)N[C@@H](CCC(N)=O)C(=O)N[C@@H](Cc1c[nH]c2ccccc12)C(=O)N[C@@H](CC(C)C)C(=O)N[C@@H](CC(C)C)C(=O)N[C@@H](CO)C(=O)N[C@H](C(N)=O)[C@@H](C)O)C(C)C)C(=O)O)C(=O)O)C(=O)O)C(=O)O [Example 59] (H-HSQGTFTSDYSKYLDK([εLys-γGlu-γGlu-γGlu-γGlu-Ac])RAAQDFVQWLLST-NH2)
0.0055 | CC(=O)N[C@@H](CCC(=O)N[C@@H](CCC(=O)N[C@@H](CCC(=O)N[C@@H](CCC(=O)NCCCC[C@H](NC(=O)[C@@H](NC(=O)[C@H](Cc1ccccc1)NC(=O)[C@H](CCC(=O)O)NC(=O)[C@H](CCC(N)=O)NC(=O)[C@H](C)NC(=O)[C@H](CCCNC(=N)N)NC(=O)[C@H](CCCNC(=N)N)NC(=O)[C@H](CO)NC(=O)[C@H](CCC(=O)O)NC(=O)[C@H](CC(C)C)NC(=O)[C@H](Cc1ccc(O)cc1)NC(=O)[C@H](CCCCN)NC(=O)[C@H](CO)NC(=O)[C@H](Cc1ccc(O)cc1)NC(=O)[C@H](CC(=O)O)NC(=O)[C@H](CO)NC(=O)[C@@H](NC(=O)[C@H](Cc1ccccc1)NC(=O)[C@@H](NC(=O)CNC(=O)[C@H](CCC(N)=O)NC(=O)[C@H](CO)NC(=O)[C@@H](N)Cc1c[nH]cn1)[C@@H](C)O)[C@@H](C)O)C(C)C)C(=O)N[C@@H](Cc1c[nH]c2ccccc12)C(=O)N[C@@H](CC(C)C)C(=O)N[C@@H](CC(C)C)C(=O)N[C@@H](CO)C(=O)N[C@H](C(=O)O)[C@@H](C)O)C(=O)O)C(=O)O)C(=O)O)C(=O)O [Example 22, N^ε24-[(4S)-4-[[(4S)-4-[[(4S)-4-[[(4S)-4-acetamido-4-carboxybutanoyl]amino]-4-carboxybutanoyl]amino]-4-carboxybutanoyl]amino]-4-carboxybutanoyl]-[Glu15,Glu21,Lys24,Leu27,Ser28]-Glucagon] (H-HSQGTFTSDYSKYLESRRAQEFVK([γGlu-γGlu-γGlu-γGlu-Ac])WLLST-OH)
0.008 | CC(C)C[C@H](NC(=O)[C@H](Cc1c[nH]c2ccccc12)NC(=O)[C@H](CCCCNC(=O)CC[C@H](NC(=O)CC[C@H](NC(=O)CC[C@H](NC(=O)CC[C@H](N)C(=O)O)C(=O)O)C(=O)O)C(=O)O)NC(=O)[C@@H](NC(=O)[C@H](Cc1ccccc1)NC(=O)[C@H](CC(=O)O)NC(=O)[C@H](CCC(N)=O)NC(=O)[C@H](C)NC(=O)[C@H](CCCNC(=N)N)NC(=O)[C@H](CCCNC(=N)N)NC(=O)[C@@H](NC(=O)[C@H](CC(=O)O)NC(=O)[C@H](CC(C)C)NC(=O)[C@H](Cc1ccc(O)cc1)NC(=O)[C@H](CCCCN)NC(=O)[C@H](CO)NC(=O)[C@H](Cc1ccc(O)cc1)NC(=O)[C@H](CC(=O)O)NC(=O)[C@H](CO)NC(=O)[C@@H](NC(=O)[C@H](Cc1ccccc1)NC(=O)[C@@H](NC(=O)CNC(=O)[C@H](Cc1c[nH]cn1)NC(=O)[C@H](CO)NC(=O)[C@@H](N)Cc1c[nH]cn1)[C@@H](C)O)[C@@H](C)O)[C@@H](C)O)C(C)C)C(=O)N[C@@H](CC(C)C)C(=O)N[C@@H](CO)C(=O)N[C@H](C(=O)O)[C@@H](C)O [Example 33, N^ε24-[(4S)-4-[[(4S)-4-[[(4S)-4-[[(4S)-4-amino-4-carboxybutanoyl]amino]-4-carboxybutanoyl]amino]-4-carboxybutanoyl]amino]-4-carboxybutanoyl]-[His3,Thr16,Lys24,Leu27,Ser28]-Glucagon] (H-HSHGTFTSDYSKYLDTRRAQDFVK([γGlu-γGlu-γGlu-γGlu])WLLST-OH)
0.153 | CC(=O)N[C@@H](CCC(=O)N[C@@H](CCC(=O)N[C@@H](CCC(=O)N[C@@H](CCC(=O)NCCCC[C@H](NC(=O)[C@@H](NC(=O)[C@H](Cc1ccccc1)NC(=O)[C@H](CCC(=O)O)NC(=O)[C@H](C)NC(=O)[C@H](C)NC(=O)[C@H](CCCNC(=N)N)NC(=O)[C@H](CCCNC(=N)N)NC(=O)[C@@H](NC(=O)[C@H](CC(=O)O)NC(=O)[C@H](CC(C)C)NC(=O)[C@H](Cc1ccc(O)cc1)NC(=O)[C@H](CCCCN)NC(=O)[C@H](CO)NC(=O)[C@@H](NC(=O)[C@H](CC(=O)O)NC(=O)[C@H](CO)NC(=O)[C@@H](NC(=O)[C@H](Cc1ccccc1)NC(=O)[C@@H](NC(=O)CNC(=O)[C@H](Cc1c[nH]cn1)NC(=O)CNC(=O)[C@@H](N)Cc1c[nH]cn1)[C@@H](C)O)[C@@H](C)O)C(C)C)C(C)C)C(C)C)C(=O)N[C@@H](Cc1c[nH]c2ccccc12)C(=O)N[C@@H](CC(C)C)C(=O)N[C@@H](CC(C)C)C(=O)N[C@@H](CO)C(=O)N[C@H](C(=O)O)[C@@H](C)O)C(=O)O)C(=O)O)C(=O)O)C(=O)O [Example 50, N^ε24-[(4S)-4-[[(4S)-4-[[(4S)-4-[[(4S)-4-acetamido-4-carboxybutanoyl]amino]-4-carboxybutanoyl]amino]-4-carboxybutanoyl]amino]-4-carboxybutanoyl]-[Gly^2,His^3,Val^10,Val^16,Ala^20,Glu^21,Lys^24,Leu^27,Ser^28]-Glucagon] (H-HGHGTFTSDVSKYLDVRRAAEFVK([γGlu-γGlu-γGlu-γGlu-Ac])WLLST-OH)
